# From publication PMC2783590 (Nature chemical biology, 2009)
# Tests used:
# [1] = tested on: HA-asAkt1/2/3 (Thr308, Ser473) phosphorylation; type: cell-based, Human; conditions: then 2.5 µM PrINZ 30 min; for PrINZ induced Thr308 phosphorylation / PrINZ induced hyperphosphorylation at Ser473: pre-treatment 10 min (10 µM BX-795, 2.5 µM PP242); for hyperphosphorylation induced by PrINZ (Thr308 and Ser473): pre-treatment 10 min
# [2] = tested on: Akt (Thr308) and rpS6 (Ser240/244) phosphorylation in L6 cells; test: Insulin stimulated L6 cells, immunoblotting; type: cell-based; conditions: serum-starved, 20 min drug then 100 nM insulin 10 min
# [3] = tested on: Akt (Thr308, Ser473) and GSK3β (Ser9) phosphorylation; type: cell-based, Human; conditions: serum-starved HEK293, 20 min drug then 50 ng/ml IGF-1 10 min
# [4] = tested on: Akt membrane localization; test: Immunofluorescence of Akt in untransfected HEK293 cells; type: cell-based, Human
# PC-3 tumor = conditions: PC-3 xenograft; cited from earlier work
# MiaPaCa-2 tumor = conditions: MiaPaCa-2 xenograft; cited from earlier work
# 3T3-Akt1 tumor = conditions: 3T3-Akt1 xenograft; cited from earlier work
# Akt = conditions: cited from earlier work
# [5] = tested on: HA-asAkt1 (Thr308, Ser473) phosphorylation; test: HEK293 cells transfected with HA-asAkt1, immunoblotting; type: cell-based, Human; conditions: 30 min, serially diluted inhibitor
# [6] = tested on: GSK3β (Ser9) phosphorylation; test: HEK293 cells transfected with myr-HA-asAkt1, immunoblotting; type: cell-based, Human; conditions: myr-HA-asAkt1, 30 min, various concentrations
# [7] = tested on: myr-HA-asAkt1-KD or myr-HA-asAkt2-KD (Thr308, Ser473) phosphorylation; test: HEK293 cells expressing kinase dead; type: cell-based, Human; conditions: 30 min, 2.5 µM PrINZ or 10 µM 3-IB-PP1
# myr-HA-wtAkt1 = myr-HA-wtAkt1 (Homo sapiens, UniProt P31749); test: In vitro IP kinase assay for Akt variants; type: biochemical; conditions: myr-HA-wtAkt1 expressed in HEK293T cells, immunoprecipitated; 50 µM ATP
# Chain of myr-HA-wtAkt1 (P31749 whole entry): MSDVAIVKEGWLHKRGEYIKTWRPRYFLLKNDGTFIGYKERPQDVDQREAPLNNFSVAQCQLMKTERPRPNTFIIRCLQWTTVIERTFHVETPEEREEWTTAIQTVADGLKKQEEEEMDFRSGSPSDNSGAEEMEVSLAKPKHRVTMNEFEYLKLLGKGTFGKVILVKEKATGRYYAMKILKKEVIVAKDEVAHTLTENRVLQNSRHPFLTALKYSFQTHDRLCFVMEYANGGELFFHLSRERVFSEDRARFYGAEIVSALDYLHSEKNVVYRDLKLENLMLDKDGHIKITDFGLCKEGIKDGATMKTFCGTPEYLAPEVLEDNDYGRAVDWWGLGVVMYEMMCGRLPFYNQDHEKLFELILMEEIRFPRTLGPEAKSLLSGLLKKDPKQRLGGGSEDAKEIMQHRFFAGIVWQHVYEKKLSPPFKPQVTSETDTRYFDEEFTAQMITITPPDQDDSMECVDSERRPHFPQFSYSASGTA
# myr-HA-asAkt1 = myr-HA-asAkt1 (Homo sapiens, UniProt P31749, M227G); test: In vitro IP kinase assay for Akt variants; type: biochemical; conditions: myr-HA-asAkt1 expressed in HEK293T cells, immunoprecipitated; 50 µM ATP
# Chain of myr-HA-asAkt1 (P31749 whole entry M227G): as the sequence (P31749 whole entry) above, with M227G counted along it
# myr-HA-wtAkt2 = myr-HA-wtAkt2 (Homo sapiens, UniProt P31751); test: In vitro IP kinase assay for Akt variants; type: biochemical; conditions: myr-HA-wtAkt2 expressed in HEK293T cells, immunoprecipitated; 50 µM ATP
# Chain of myr-HA-wtAkt2 (P31751 whole entry): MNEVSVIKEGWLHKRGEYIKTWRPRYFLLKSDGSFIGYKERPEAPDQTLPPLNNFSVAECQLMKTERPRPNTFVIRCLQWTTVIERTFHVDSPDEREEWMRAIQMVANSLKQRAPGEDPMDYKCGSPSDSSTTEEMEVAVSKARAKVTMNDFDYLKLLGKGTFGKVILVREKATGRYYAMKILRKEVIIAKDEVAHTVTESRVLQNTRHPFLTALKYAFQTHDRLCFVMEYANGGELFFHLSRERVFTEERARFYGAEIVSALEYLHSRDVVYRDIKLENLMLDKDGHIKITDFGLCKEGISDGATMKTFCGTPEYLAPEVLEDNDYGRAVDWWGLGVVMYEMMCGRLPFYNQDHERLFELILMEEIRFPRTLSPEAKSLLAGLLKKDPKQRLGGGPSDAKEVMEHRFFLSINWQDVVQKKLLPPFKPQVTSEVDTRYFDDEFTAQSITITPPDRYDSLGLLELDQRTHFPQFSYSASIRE
# myr-HA-asAkt2 = myr-HA-asAkt2 (Homo sapiens, UniProt P31751, M229G); test: In vitro IP kinase assay for Akt variants; type: biochemical; conditions: myr-HA-asAkt2 expressed in HEK293T cells, immunoprecipitated; 50 µM ATP
# Chain of myr-HA-asAkt2 (P31751 whole entry M229G): as the sequence (P31751 whole entry) above, with M229G counted along it
# myr-HA-wtAkt3 = myr-HA-wtAkt3 (Homo sapiens, UniProt Q9Y243); test: In vitro IP kinase assay for Akt variants; type: biochemical; conditions: myr-HA-wtAkt3 expressed in HEK293T cells, immunoprecipitated; 50 µM ATP
# Chain of myr-HA-wtAkt3 (Q9Y243 whole entry): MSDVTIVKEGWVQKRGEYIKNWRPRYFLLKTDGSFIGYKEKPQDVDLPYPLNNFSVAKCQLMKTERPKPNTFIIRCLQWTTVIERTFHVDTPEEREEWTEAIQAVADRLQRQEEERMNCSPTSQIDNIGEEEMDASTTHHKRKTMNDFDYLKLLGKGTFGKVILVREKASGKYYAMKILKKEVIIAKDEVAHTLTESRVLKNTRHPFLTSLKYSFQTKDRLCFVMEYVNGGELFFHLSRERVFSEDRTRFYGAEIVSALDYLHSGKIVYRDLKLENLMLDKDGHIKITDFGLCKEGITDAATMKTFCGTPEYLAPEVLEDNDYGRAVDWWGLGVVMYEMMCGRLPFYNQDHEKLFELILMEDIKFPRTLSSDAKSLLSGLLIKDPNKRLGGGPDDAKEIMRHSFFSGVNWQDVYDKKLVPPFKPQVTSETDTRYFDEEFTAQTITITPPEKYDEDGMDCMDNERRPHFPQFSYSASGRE
# myr-HA-asAkt3 = myr-HA-asAkt3 (Homo sapiens, UniProt Q9Y243, M225G); test: In vitro IP kinase assay for Akt variants; type: biochemical; conditions: myr-HA-asAkt3 expressed in HEK293T cells, immunoprecipitated; 50 µM ATP
# Chain of myr-HA-asAkt3 (Q9Y243 whole entry M225G): as the sequence (Q9Y243 whole entry) above, with M225G counted along it
# [8] = tested on: HA-asAkt1 and flag-wtAkt1 (Thr308, Ser473) phosphorylation; type: cell-based, Human; conditions: 30 min, various concentrations
# 220 purified kinases = test: SelectScreen profiling, whole panel; type: biochemical; conditions: 1 µM
# [9] = tested on: myr-HA-asAkt1 (Thr308, Ser473) phosphorylation; type: cell-based, Human; conditions: 2.5 µM PIK90 10 min, then 2.5 µM PrINZ 30 min
smiles,measurement,setting,value
CC(C)n1nc(-c2cc3cc(O)ccc3[nH]2)c2c(N)ncnc21 [PP242],PrINZ induced Thr308 phosphorylation,[1],unaffected
same,PrINZ induced hyperphosphorylation at Ser473,[1],completely inhibited
COc1ccccc1N1CCN(c2ncnc3[nH]nc(Br)c23)CC1 [DG2],Akt phosphorylation at Thr308 and Ser473,[2],does not induce
Cc1n[nH]c2ccc(-c3cncc(OC[C@@H](N)Cc4c[nH]c5ccccc45)c3)cc12 [A-443654],Akt phosphorylation at Thr308 and Ser473,[3],induced
same,phosphorylation on GSK3β at Ser9,[3],potently inhibited
same,location of Akt,"[4]; 2.5 µM, 15 min, no growth factor stimulation",translocation of Akt to the plasma membrane
same,tumor growth,PC-3 tumor,inhibit the growth
same,tumor growth,MiaPaCa-2 tumor,inhibit the growth
same,tumor growth,3T3-Akt1 tumor,inhibit the growth
"CCn1c(-c2nonc2N)nc2c(C#CC(C)(C)O)ncc(OC[C@H]3CCCNC3)c21 [GSK690693, 4-(2-(4-amino-1,2,5-oxadiazol-3-yl)-1-ethyl-7-{[(3S)-3-piperidinylmethyl]oxy}-1H-imidazo[4,5-c]pyridin-4-yl)-2-methyl-3-butyn-2-ol]",Akt hyperphosphorylation,Akt,induces Akt hyperphosphorylation
CC(C)(C)n1nc(Cc2cccc(I)c2)c2c(N)ncnc21 [3-IB-PP1],Akt phosphorylation at Thr308 and Ser473,[3],unperturbed
same,phosphorylation on GSK3β at Ser9,[3],unperturbed
same,HA-asAkt1 hyperphosphorylation,[5],induced
same,phosphorylation level of Ser9 on GSK3β,[6],decreased
same,hyperphosphorylation on Thr308 and Ser473 of kinase dead mutants,[7],induced striking hyperphosphorylation
CCCc1cc(-c2cncc(OC[C@@H](N)Cc3c[nH]c4ccccc34)c2)cc2c(C)n[nH]c12 [PrINZ],IC50 (nM) wtAkt1,myr-HA-wtAkt1,did not inhibit
same,IC50 (nM) asAkt1,myr-HA-asAkt1,low nanomolar range
same,IC50 (nM) wtAkt2,myr-HA-wtAkt2,did not inhibit
same,IC50 (nM) asAkt2,myr-HA-asAkt2,low nanomolar range
same,IC50 (nM) wtAkt3,myr-HA-wtAkt3,did not inhibit
same,IC50 (nM) asAkt3,myr-HA-asAkt3,low nanomolar range
same,Akt phosphorylation at Thr308 and Ser473,[3],unperturbed
same,phosphorylation on GSK3β at Ser9,[3],unperturbed
same,HA-asAkt1 hyperphosphorylation,[5],induced
same,phosphorylation level of Ser9 on GSK3β,[6],decreased
same,hyperphosphorylation on Thr308 and Ser473 of kinase dead mutants,[7],induced striking hyperphosphorylation
same,Thr308 and Ser473 phosphorylation after immunoprecipitation,[8],induced only on HA-asAkt1
"O=c1[nH]c2ccccc2n1C1CCN(Cc2ccc(-c3nc4cc5nc[nH]c5cc4nc3-c3ccccc3)cc2)CC1 [Akti-1,2]",hyperphosphorylation induced by PrINZ (Thr308 and Ser473),[1],dose-dependent inhibition
O=C(NCCCNc1nc(Nc2cccc(NC(=O)N3CCCC3)c2)ncc1I)c1cccs1 [BX-795],selectivity in panel of 220 kinases,220 purified kinases,selective for only PDK1 within the PI3K-mTORC1 pathway
same,PrINZ induced Thr308 phosphorylation,[1],significant decrease
same,PrINZ induced hyperphosphorylation at Ser473,[1],reduced
COc1ccc2c(c1OC)N=C(NC(=O)c1cccnc1)N1CCN=C21 [PIK90],hyperphosphorylation induced by PrINZ (Thr308 and Ser473),[1],significantly attenuated
same,hyperphosphorylation on myr-HA-asAkt1,[9],not inhibited
same,A-443654 induced translocation and Thr308 phosphorylation of Akt,[4]; 2.5 µM PIK90 10 min before 2.5 µM A-443654 15 min,inhibited
